As a reminder, the IC50 is the concentration that gives 50% inhibition. The melting point is the temperature of the solid-liquid transition. The viability is the share of living cells, or the viability signal relative to a control. A lower viability goes with a greater loss of cells.

Converted amounts (≈) assume the structure as drawn.

Results on 17 compounds are retold here after article PMC11312933, “Mystery of the Passerini Reaction for the Synthesis of the Antimicrobial Peptidomimetics against Nosocomial Pathogenic Bacteria” (International Journal of Molecular Sciences, 2024).

Data set [1] relates to S. aureus. As to conditions: against S. aureus; cited from earlier work.
In data set [2] the test system is E. coli (K12 (ATCC 25404), R2 (ATCC 39544), R3 (ATCC 11775), R4 (ATCC 39543)), A. baumannii (ATCC 17978), P. aeruginosa (ATCC 15442), E. cloacae (ATCC 49141) …. Kind of data set: Minimum inhibitory concentration (MIC), microtiter plate method with resazurin. The data set is classed as cell-based, S. aureus. The settings on record: Gram-negative and Gram-positive bacteria. The source says: The reference bacterial strains of E.coli (K12 ATCC 25404, R2 ATCC 39544, R3 ATCC 11775, and R4 ATCC 39543) and Staphylococcus aureus strain (ATCC 23235), as well as Acinetobacter baumannii (ATCC 17978), Pseudomonas aeruginosa (ATCC 15442), and Enterobacter cloacae (ATCC 49141) were obtained from LGC Standards U.K. and were used according to the recommendation of ISO 11133 [30]. These strains were used to test the antibacterial activity of the analysed compounds by determining the minimum inhibitory concentration (MIC) and minimum bactericidal concentration (MBC), as described in [8, 9, 26, 27, 28, 29, 30, 31]. The results are shown in Figures S33 and S34 in the Supplementary Materials.
MIC and MBC were estimated using a microtiter plate method with sterile 48- or 96-well plates, which is precisely described in [9]. Briefly, MIC and MBC, defined as the lowest concentration of a bacteriostatic agent, were determined. Briefly, 50 μL of the analysed compounds and the appropriate bacterial strains were added to the first row of the plate. Then, 25 μL of sterile Tryptone Soya Broth (TSB) medium was added to the other wells, and serial dilutions were performed. Subsequently, 200 μL of inoculated TSB medium containing resazurin (0.02 mg/mL) as an indicator was added to all wells. TSB medium was inoculated with 10^6 colony-forming units (CFU)/mL (approximately 0.5 McFarland units) of the bacterial strains. The plates were incubated at 30 °C for 24 h. Changes in colour from blue to pink or yellowish with turbidity were considered positive, and the lowest concentration at which no visible change in colour occurred was recorded as the MIC, according to Kowalczyk et al.. Each experiment (both MIC and MBC) was repeated at least three times.
For orientation: The colour change of resazurin is a common sign of viable cells or microbes.

In data set [3] the test system is S. aureus strain (ATCC 23235). The data set is classed as cell-based, Staphylococcus aureus. The settings on record: S. aureus (ATCC 23235).
Data set [4] is described as follows: MTT cytotoxicity assay. As to conditions: mouse. (Tetrazolium assays rely on reduction of a dye to a coloured formazan, in cell work by metabolically active cells.)
Procedure: (§1) The cytotoxic effects of the tested peptidomimetics 1–16 on BALB/c3T3 mouse fibroblast cells were determined using the MTT assay after 24 h of incubation at five different concentrations (1, 2, 4, 6, and 8 µg/mL). The MTT test is based on the ability of the mitochondrial dehydrogenase enzymes to convert an orange, water-soluble tetrazolium salt (3-(4,5-dimethylthiazol-2-yl)-2,5-diphenyltetrazolium bromide) into an insoluble formazan, which is a dark blue product of the above reaction. After dissolving the formazan crystals in DMSO or isopropanol, a coloured solution was formed, the intensity of which is measured spectrophotometrically within the wavelength range of 492–570 nm. The amount of coloured reduced MTT is proportional to the oxidative activity of the cell’s mitochondria and, under strictly defined experimental conditions, to the number of metabolically active (living) cells in the population. The MTT test can also be used to determine cell viability in populations of cells that no longer divide but are metabolically active.
The subject of data set [5] is BALB/c3T3 mouse embryonic fibroblast cell line. Kind of data set: MTT cytotoxicity assay.
Procedure: as §1

Consider `Cc1cc(=O)oc2c(C)c(OCc3ccc(-c4ccccc4)cc3)ccc12` [Compound B], for which the IC50 in data set [1] was 3 µM.
As to `COc1ccc(CNC(=O)C(OC(=O)Cc2ccccc2)c2ccc(Br)cc2OC(C)=O)cc1` (stereo not drawn), the melting point was in the range of 107 to 108 °C.
`Cc1cc(=O)oc2cc(OCc3ccc(-c4ccccc4)cc3)ccc12` [A]: the 50% inhibitory concentration (IC50) in data set [1] is 9.7 µM.
The compound `COc1ccc(CNC(=O)C(OC(=O)Cc2ccccc2)c2c(OC(C)=O)ccc3c(C(F)(F)F)cc(=O)oc23)cc1` (stereo not drawn) [Compound 9, 1-(7-Acetoxy-2-oxo-4-(trifluoromethyl)-2H-chromen-8-yl)-2-((4-methoxybenzyl)amino)-2-oxoethyl 2-phenylacetate] displayed a melting point of 54 to 58 °C. In addition, in data set [2], the “spectrum of antibacterial activity” value is recorded as “broad-spectrum activity”. Moreover, in data set [3], the “activity against S. aureus” value is “very potent activity”.
The compound `CC(=O)Oc1cc(Br)ccc1C(OC(=O)Cc1ccccc1)C(=O)NCc1ccccc1` (stereo not drawn) gave a melting point of 122 to 124 °C.
On to `CC(=O)Oc1ccccc1C(OC(=O)Cc1ccccc1)C(=O)NCc1ccccc1` (stereo not drawn) [Compound 15, 1-(2-Acetoxyphenyl)-2-(benzylamino)-2-oxoethyl 2-phenylacetate], for which the viability at 24 h, 2 µg/mL in data set [4] stood at 66.5%.
`Cc1onc(-c2ccccc2Cl)c1C(=O)N[C@@H]1C(=O)N2[C@@H]1SC(C)(C)[C@@H]2C(=O)O` [cloxacillin, reference compound] displayed a viability in data set [4] (BALB/c3T3 mouse embryonic fibroblast cells) of 85 to 89.9%.
The compound `CC(=O)Oc1ccc2c(C(F)(F)F)cc(=O)oc2c1C(OC(=O)Cc1ccccc1)C(=O)NCc1ccc(F)cc1` (stereo not drawn) showed a melting point of 51 to 55 °C.
The same measure, in the same setting: next, `CC(=O)Oc1ccc2ccc(=O)oc2c1C(OC(=O)Cc1ccccc1)C(=O)NCc1ccc(F)cc1` (stereo not drawn): 61 to 63 °C.
Regarding “1-(7-Acetoxy-4-methyl-2-oxo-2H-chromen-8-yl)-2-((4-fluorobenzyl)amino)-2-oxoethyl 2-phenylacetate [Compound 1]”, in data set [2], the “spectrum of antibacterial activity” value is recorded as “broad-spectrum activity”. The compound also came in with an IC50 for fibroblasts in data set [5] (after 24 h of incubation) of 4.26 µg/mL.
For the compound `COc1ccc(CNC(=O)C(OC(=O)Cc2ccccc2)c2ccccc2OC(C)=O)cc1` (stereo not drawn) [Compound 14, 1-(2-Acetoxyphenyl)-2-((4-methoxybenzyl)amino)-2-oxoethyl 2-phenylacetate], the half-inhibitory concentration (IC50) in data set [5] (Mus musculus, BALB/c3T3, 24 h, read-out: IC50 for fibroblasts) was 7.22 µg/mL (≈ 16.1 µM).
With `CC(=O)Oc1ccc2c(C(F)(F)F)cc(=O)oc2c1C(OC(=O)Cc1ccccc1)C(=O)NCc1ccccc1` (stereo not drawn), the melting point fell in the range of 54 to 57 °C.
`COc1ccc(CNC(=O)C(OC(=O)Cc2ccccc2)c2c(OC(C)=O)ccc3c(C)cc(=O)oc23)cc1` (stereo not drawn) [Compound 2, 1-(7-Acetoxy-4-methyl-2-oxo-2H-chromen-8-yl)-2-((4-methoxybenzyl)amino)-2-oxoethyl 2-phenylacetate] came in with a melting point of 66 to 68 °C. In data set [2], the “spectrum of antibacterial activity” value is on record as “broad-spectrum activity”.
`COc1ccc(CNC(=O)C(O)c2ccc(Br)cc2O)cc1` (stereo not drawn) yielded a melting point of 96 to 100 °C.
`CC(=O)Oc1ccc2c(C)cc(=O)oc2c1C(OC(=O)Cc1ccccc1)C(=O)NCc1ccc(F)cc1` (stereo not drawn) [Compound 6, 1-(7-Acetoxy-4-methyl-2-oxo-2H-chromen-8-yl)-2-((4-fluorobenzyl)amino)-2-oxoethyl 2-phenylacetate] had a melting point of 56 to 59 °C. Moreover, the viability at 24 h, 2 µg/mL in data set [4] worked out at 87%.
Turning to `COc1ccc(CNC(=O)C(OC(=O)Cc2ccccc2)c2c(OC(C)=O)ccc3ccc(=O)oc23)cc1` (stereo not drawn) [Compound 4, 1-(7-Acetoxy-2-oxo-2H-chromen-8-yl)-2-((4-methoxybenzyl)amino)-2-oxoethyl 2-phenylacetate], the melting point lay within 57 to 59 °C. The “spectrum of antibacterial activity” value in data set [2] was “broad-spectrum activity”.
The like results for `CC(=O)Oc1ccc2ccc(=O)oc2c1C(OC(=O)Cc1ccccc1)C(=O)NCc1ccccc1` (stereo not drawn) [Compound 3, 1-(7-Acetoxy-2-oxo-2H-chromen-8-yl)-2-(benzylamino)-2-oxoethyl 2-phenylacetate] were, in that order, 64 to 66 °C and “broad-spectrum activity”.
